Data published in US10856562B2, “Flavor composition and edible compositions containing same” (MARS, INCORPORATED, priority 2013, dated 2020).
Entries after “also recorded” stand apart in the source; their conditions may differ. Square brackets hold non-standard residues; d marks the D form. Ends that are not written are not given here. pGlu = O=C1CC[C@@H](C(=O)O)N1

Test system: panelists
Assay: Descriptive profile (Spectrum method) of peptide in 0.2% NaCl solution, in-mouth
Format: in vivo, human
Conditions: for Astringent, in-mouth perception / Bitter, in-mouth perception / Flinty/Mineral, in-mouth perception / Metallic, in-mouth perception / Numbing, in-mouth perception / Salt, in-mouth perception (mean salt perception in-mouth) / Sour, in-mouth perception / Sweet, in-mouth perception: mean score, 15-point scale; for Level of the aromatics, basic tastes and chemical feeling factors in-mouth with increasing concentration: 0.1 to 40.0/50.0 ppb; for Salt perception in-mouth as the concentration increases: 0.1 to 40.0/50.0 ppb in 0.2% NaCl; for Umami like swelling of lips and tongue, in-mouth: all levels; for Umami like feeling factor of lip and tongue swelling: both in-mouth and after expectoration
Description: Descriptive Profiles (Flavor and Chemical Feeling Factors) of five use levels of a pGlu-Val-Leu flavor composition were determined using the Spectrum™ method. The five use levels were as follows: 0.1 ppb, 0.5 ppb, 1.0 ppb, 10.0 ppb and 40.0 ppb.
Data was collected for the flavor and chemical feeling factors of the product in-mouth for each of the five use levels according to the following protocol. One replication was collected for the flavor and chemical feeling factors of the product in-mouth. 6-9 panelists evaluated per session.
2. Each panelist tasted a test sample (0.1 ppb, 0.5 ppb, 1.0 ppb, 10.0 ppb or 40.0 ppb all in 0.2% NaCl solution). Only one sample was tasted per session.
Descriptive attributes (e.g., taste, flavor and chemical feeling factors) of six use levels of pGlu-Val-Leu (SE-13), pGlu-Val (SE-14) and pGlu-Val-Val (SE-17) flavor composition peptides were determined. The six use levels were as follows: 0.1 ppb, 0.5 ppb, 1.0 ppb, 10.0 ppb, 40.0 ppb and 50.0 ppb.
Data was collected for the attributes of the product in-mouth for the use levels according to the following protocol: • The samples were analyzed for flavor and aftertaste by six-nine members of a panel, trained and experienced in appearance, flavor and texture evaluation using the Spectrum™ method. Samples in solution were evaluated across multiple panel sessions. • The strength of each attribute was rated on a 15-point scale, where 0=none and 15=very strong. • This scale incorporates the ability to use tenths of a point and therefore has the potential of 150 scale differentiations. • The scale may be expanded beyond 15 points to include extreme ratings if necessary.
Attribute Perception Protocol • The panelists evaluated each sample using the following procedure • Descriptive Profiles (flavor and chemical feeling factors) of 5 levels of salt enhancing solutions • Individual data was collected for the flavor and chemical feeling factors of the product in-mouth • Increased Salt Perception Protocol • Each panelist tasted salt 5 reference (0.35% salt solution)—to ground themselves on salt intensity of 5.0. • Each panelist tasted the test sample (0.1 ppb, 0.5 ppb, 1.0 ppb, 10.0 ppb or 40.0/50.0 ppb all in 0.2% NaCl solution: only one per session) • Each panelist then re-tasted the salt 5 reference and rated it for salt intensity as well as any other basic taste, chemical feeling factor, or aromatic perceived. This captured any increased salt perception indicated by the test sample as well as any other perceptions present. • Return to Baseline Protocol • After evaluating the sample for salt & other perceptions, panelists re-tasted the salt 5 reference at 1 minute intervals until their perception of the salt 5 saltiness intensity had returned to 5.0. Each panelist recorded their salt intensity at each interval and took qualitative notes on other perceptions seen in aftertaste. Sample Preparation
The 0.1, 0.5, 1.0 10, 40, and 50 ppb test samples of the flavor composition peptides were prepared in water as described in table 4.
The panelists evaluated each sample for the attributes described in table 5.

[pGlu]-Val [SE-14]
Astringent, in-mouth perception (0.1 ppb in 0.2% NaCl): 0.0
Bitter, in-mouth perception (0.1 ppb in 0.2% NaCl): 0.0
Flinty/Mineral, in-mouth perception (0.1 ppb in 0.2% NaCl): 0.8
Metallic, in-mouth perception (0.1 ppb in 0.2% NaCl): 0.3
Numbing, in-mouth perception (0.1 ppb in 0.2% NaCl): 0.0
Salt, in-mouth perception (mean salt perception in-mouth) (0.1 ppb in 0.2% NaCl): 1.8
Sour, in-mouth perception (0.1 ppb in 0.2% NaCl): 0.0
Sweet, in-mouth perception (0.1 ppb in 0.2% NaCl): 0.0
Level of the aromatics, basic tastes and chemical feeling factors in-mouth with increasing concentration: does not increase
Salt perception in-mouth as the concentration increases: increases slightly; also recorded: slight increase
Astringent, in-mouth perception (0.5 ppb in 0.2% NaCl): 0.1
Bitter, in-mouth perception (0.5 ppb in 0.2% NaCl): 0.0
Flinty/Mineral, in-mouth perception (0.5 ppb in 0.2% NaCl): 0.6
Metallic, in-mouth perception (0.5 ppb in 0.2% NaCl): 0.1
Numbing, in-mouth perception (0.5 ppb in 0.2% NaCl): 0.0
Salt, in-mouth perception (mean salt perception in-mouth) (0.5 ppb in 0.2% NaCl): 2.5
Sour, in-mouth perception (0.5 ppb in 0.2% NaCl): 0.0
Sweet, in-mouth perception (0.5 ppb in 0.2% NaCl): 0.0
Astringent, in-mouth perception (1.0 ppb in 0.2% NaCl): 0.1
Bitter, in-mouth perception (1.0 ppb in 0.2% NaCl): 0.0
Flinty/Mineral, in-mouth perception (1.0 ppb in 0.2% NaCl): 0.9
Metallic, in-mouth perception (1.0 ppb in 0.2% NaCl): 0.1
Numbing, in-mouth perception (1.0 ppb in 0.2% NaCl): 0.0
Salt, in-mouth perception (mean salt perception in-mouth) (1.0 ppb in 0.2% NaCl): 2.9
Sour, in-mouth perception (1.0 ppb in 0.2% NaCl): 0.0
Sweet, in-mouth perception (1.0 ppb in 0.2% NaCl): 0.0
Astringent, in-mouth perception (10.0 ppb in 0.2% NaCl): 0.0
Bitter, in-mouth perception (10.0 ppb in 0.2% NaCl): 0.0
Flinty/Mineral, in-mouth perception (10.0 ppb in 0.2% NaCl): 0.9
Metallic, in-mouth perception (10.0 ppb in 0.2% NaCl): 0.3
Numbing, in-mouth perception (10.0 ppb in 0.2% NaCl): 0.0
Salt, in-mouth perception (mean salt perception in-mouth) (10.0 ppb in 0.2% NaCl): 3.3
Sour, in-mouth perception (10.0 ppb in 0.2% NaCl): 0.0
Sweet, in-mouth perception (10.0 ppb in 0.2% NaCl): 0.0
Astringent, in-mouth perception (50.0 ppb in 0.2% NaCl): 0.0
Bitter, in-mouth perception (50.0 ppb in 0.2% NaCl): 0.0
Flinty/Mineral, in-mouth perception (50.0 ppb in 0.2% NaCl): 0.7
Metallic, in-mouth perception (50.0 ppb in 0.2% NaCl): 0.2
Numbing, in-mouth perception (50.0 ppb in 0.2% NaCl): 0.0
Salt, in-mouth perception (mean salt perception in-mouth) (50.0 ppb in 0.2% NaCl): 3.2
Sour, in-mouth perception (50.0 ppb in 0.2% NaCl): 0.0
Sweet, in-mouth perception (50.0 ppb in 0.2% NaCl): 0.0
Umami like swelling of lips and tongue, in-mouth: Some panelists also experience Umami like swelling of lips and tongue
Umami like feeling factor of lip and tongue swelling: Shows umami like feeling factor of lip and tongue swelling

[pGlu]-Val-Leu [SE-13]
Astringent, in-mouth perception (0.1 ppb in 0.2% NaCl): 0.0
Bitter, in-mouth perception (0.1 ppb in 0.2% NaCl): 0.0
Flinty/Mineral, in-mouth perception (0.1 ppb in 0.2% NaCl): 0.1
Metallic, in-mouth perception (0.1 ppb in 0.2% NaCl): 0.1
Numbing, in-mouth perception (0.1 ppb in 0.2% NaCl): 0.0
Salt, in-mouth perception (mean salt perception in-mouth) (0.1 ppb in 0.2% NaCl): 2.3
Sour, in-mouth perception (0.1 ppb in 0.2% NaCl): 0.0
Sweet, in-mouth perception (0.1 ppb in 0.2% NaCl): 0.0
Level of the aromatics, basic tastes and chemical feeling factors in-mouth with increasing concentration: does not increase
Salt perception in-mouth as the concentration increases: does not increase notably; also recorded: Does not show a notable increase
Salt perception in-mouth as the concentration increases (listed as pGlu-Val-Leu): did not significantly increase
Astringent, in-mouth perception (0.5 ppb in 0.2% NaCl): 0.0
Bitter, in-mouth perception (0.5 ppb in 0.2% NaCl): 0.0
Flinty/Mineral, in-mouth perception (0.5 ppb in 0.2% NaCl): 0.3
Metallic, in-mouth perception (0.5 ppb in 0.2% NaCl): 0.3
Numbing, in-mouth perception (0.5 ppb in 0.2% NaCl): 0.0
Salt, in-mouth perception (mean salt perception in-mouth) (0.5 ppb in 0.2% NaCl): 2.8
Sour, in-mouth perception (0.5 ppb in 0.2% NaCl): 0.0
Sweet, in-mouth perception (0.5 ppb in 0.2% NaCl): 0.2
Astringent, in-mouth perception (1.0 ppb in 0.2% NaCl): 0.0
Bitter, in-mouth perception (1.0 ppb in 0.2% NaCl): 0.0
Flinty/Mineral, in-mouth perception (1.0 ppb in 0.2% NaCl): 0.5
Metallic, in-mouth perception (1.0 ppb in 0.2% NaCl): 0.1
Numbing, in-mouth perception (1.0 ppb in 0.2% NaCl): 0.0
Salt, in-mouth perception (mean salt perception in-mouth) (1.0 ppb in 0.2% NaCl): 2.3
Sour, in-mouth perception (1.0 ppb in 0.2% NaCl): 0.0
Sweet, in-mouth perception (1.0 ppb in 0.2% NaCl): 0.0
Astringent, in-mouth perception (10.0 ppb in 0.2% NaCl): 0.0
Bitter, in-mouth perception (10.0 ppb in 0.2% NaCl): 0.0
Flinty/Mineral, in-mouth perception (10.0 ppb in 0.2% NaCl): 0.3
Metallic, in-mouth perception (10.0 ppb in 0.2% NaCl): 0.1
Numbing, in-mouth perception (10.0 ppb in 0.2% NaCl): 0.0
Salt, in-mouth perception (mean salt perception in-mouth) (10.0 ppb in 0.2% NaCl): 3.1
Sour, in-mouth perception (10.0 ppb in 0.2% NaCl): 0.0
Sweet, in-mouth perception (10.0 ppb in 0.2% NaCl): 0.0
Astringent, in-mouth perception (40.0 ppb in 0.2% NaCl): 0.0
Bitter, in-mouth perception (40.0 ppb in 0.2% NaCl): 0.0
Flinty/Mineral, in-mouth perception (40.0 ppb in 0.2% NaCl): 0.4
Metallic, in-mouth perception (40.0 ppb in 0.2% NaCl): 0.1
Numbing, in-mouth perception (40.0 ppb in 0.2% NaCl): 0.0
Salt, in-mouth perception (mean salt perception in-mouth) (40.0 ppb in 0.2% NaCl): 2.8
Sour, in-mouth perception (40.0 ppb in 0.2% NaCl): 0.0
Sweet, in-mouth perception (40.0 ppb in 0.2% NaCl): 0.0
Umami like swelling of lips and tongue, in-mouth: Panelists also experience Umami like swelling of lips and tongue
Umami like feeling factor of lip and tongue swelling: Shows umami like feeling factor of lip and tongue swelling

[pGlu]-Val-Val [SE-17]
Astringent, in-mouth perception (0.1 ppb in 0.2% NaCl): 0.0
Bitter, in-mouth perception (0.1 ppb in 0.2% NaCl): 0.0
Flinty/Mineral, in-mouth perception (0.1 ppb in 0.2% NaCl): 0.7
Metallic, in-mouth perception (0.1 ppb in 0.2% NaCl): 0.0
Numbing, in-mouth perception (0.1 ppb in 0.2% NaCl): 0.0
Salt, in-mouth perception (mean salt perception in-mouth) (0.1 ppb in 0.2% NaCl): 3.1
Sour, in-mouth perception (0.1 ppb in 0.2% NaCl): 0.0
Sweet, in-mouth perception (0.1 ppb in 0.2% NaCl): 0.0
Level of the aromatics, basic tastes and chemical feeling factors in-mouth with increasing concentration: does not increase
Salt perception in-mouth as the concentration increases: does not increase notably; also recorded: Does not show a notable increase; also recorded: did not necessarily increase
Astringent, in-mouth perception (0.5 ppb in 0.2% NaCl): 0.0
Bitter, in-mouth perception (0.5 ppb in 0.2% NaCl): 0.0
Flinty/Mineral, in-mouth perception (0.5 ppb in 0.2% NaCl): 0.8
Metallic, in-mouth perception (0.5 ppb in 0.2% NaCl): 0.3
Numbing, in-mouth perception (0.5 ppb in 0.2% NaCl): 0.0
Salt, in-mouth perception (mean salt perception in-mouth) (0.5 ppb in 0.2% NaCl): 4.0
Sour, in-mouth perception (0.5 ppb in 0.2% NaCl): 0.0
Sweet, in-mouth perception (0.5 ppb in 0.2% NaCl): 0.0
Astringent, in-mouth perception (1.0 ppb in 0.2% NaCl): 0.0
Bitter, in-mouth perception (1.0 ppb in 0.2% NaCl): 0.0
Flinty/Mineral, in-mouth perception (1.0 ppb in 0.2% NaCl): 0.5
Metallic, in-mouth perception (1.0 ppb in 0.2% NaCl): 0.0
Numbing, in-mouth perception (1.0 ppb in 0.2% NaCl): 0.0
Salt, in-mouth perception (mean salt perception in-mouth) (1.0 ppb in 0.2% NaCl): 2.8
Sour, in-mouth perception (1.0 ppb in 0.2% NaCl): 0.0
Sweet, in-mouth perception (1.0 ppb in 0.2% NaCl): 0.0
Astringent, in-mouth perception (10.0 ppb in 0.2% NaCl): 0.0
Bitter, in-mouth perception (10.0 ppb in 0.2% NaCl): 0.0
Flinty/Mineral, in-mouth perception (10.0 ppb in 0.2% NaCl): 0.5
Metallic, in-mouth perception (10.0 ppb in 0.2% NaCl): 0.0
Numbing, in-mouth perception (10.0 ppb in 0.2% NaCl): 0.0
Salt, in-mouth perception (mean salt perception in-mouth) (10.0 ppb in 0.2% NaCl): 3.6
Sour, in-mouth perception (10.0 ppb in 0.2% NaCl): 0.0
Sweet, in-mouth perception (10.0 ppb in 0.2% NaCl): 0.0
Astringent, in-mouth perception (50.0 ppb in 0.2% NaCl): 0.0
Bitter, in-mouth perception (50.0 ppb in 0.2% NaCl): 0.0
Flinty/Mineral, in-mouth perception (50.0 ppb in 0.2% NaCl): 0.5
Metallic, in-mouth perception (50.0 ppb in 0.2% NaCl): 0.0
Numbing, in-mouth perception (50.0 ppb in 0.2% NaCl): 0.0
Salt, in-mouth perception (mean salt perception in-mouth) (50.0 ppb in 0.2% NaCl): 3.9
Sour, in-mouth perception (50.0 ppb in 0.2% NaCl): 0.0
Sweet, in-mouth perception (50.0 ppb in 0.2% NaCl): 0.0
Umami like swelling of lips and tongue, in-mouth: Some panelists also experience Umami like swelling of lips and tongue
Umami like feeling factor of lip and tongue swelling: Shows umami like feeling factor of lip and tongue swelling
Levels of salt perception in-mouth, comparison of SE-13, SE-14 and SE-17 (overall): highest levels
